{
  "source": "paper PMC5513037",
  "about": "“Examining the influence of specificity ligands and ATP-competitive ligands on the overall effectiveness of bivalent kinase inhibitors” (Proteome Science, 2017)",
  "assay_in_all_cases": "KAM-matrix competition in K562 lysate;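 as to 0.001 uM KAM: median log10 fold change of treatment over DMSO control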;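 as to 0.01 uM KAM: median log10 fold change of treatment over DMSO control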;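 as to 0.1 uM KAM: median log10 fold change of treatment over DMSO control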;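 as to 1 uM KAM: median log10 fold change of treatment over DMSO control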;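 as to 10 uM KAM: median log10 fold change of treatment over DMSO control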",
  "type_in_all_cases": "binding",
  "key": {"DYRK1A": {"target": "T1, DYRK1A (Homo sapiens, UniProt Q13627)", "T1 construct": "endogenous in cells; host or cells: K562", "experimental": "(§1) Supplement 12953_2017_125_MOESM1_ESM.zip/MS_Supp Info.xlsx, sheet \"KAM\" | column: 10 uM KAM; 1 uM KAM; 0.1 uM KAM; 0.01 uM KAM; 0.001 uM KAM; RB50"}, "EEF2K": {"target": "T2, EEF2K (Homo sapiens, UniProt O00418)", "T2 construct": "endogenous in cells; host or cells: K562 lysate", "T2 sequence (O00418 1-725)": "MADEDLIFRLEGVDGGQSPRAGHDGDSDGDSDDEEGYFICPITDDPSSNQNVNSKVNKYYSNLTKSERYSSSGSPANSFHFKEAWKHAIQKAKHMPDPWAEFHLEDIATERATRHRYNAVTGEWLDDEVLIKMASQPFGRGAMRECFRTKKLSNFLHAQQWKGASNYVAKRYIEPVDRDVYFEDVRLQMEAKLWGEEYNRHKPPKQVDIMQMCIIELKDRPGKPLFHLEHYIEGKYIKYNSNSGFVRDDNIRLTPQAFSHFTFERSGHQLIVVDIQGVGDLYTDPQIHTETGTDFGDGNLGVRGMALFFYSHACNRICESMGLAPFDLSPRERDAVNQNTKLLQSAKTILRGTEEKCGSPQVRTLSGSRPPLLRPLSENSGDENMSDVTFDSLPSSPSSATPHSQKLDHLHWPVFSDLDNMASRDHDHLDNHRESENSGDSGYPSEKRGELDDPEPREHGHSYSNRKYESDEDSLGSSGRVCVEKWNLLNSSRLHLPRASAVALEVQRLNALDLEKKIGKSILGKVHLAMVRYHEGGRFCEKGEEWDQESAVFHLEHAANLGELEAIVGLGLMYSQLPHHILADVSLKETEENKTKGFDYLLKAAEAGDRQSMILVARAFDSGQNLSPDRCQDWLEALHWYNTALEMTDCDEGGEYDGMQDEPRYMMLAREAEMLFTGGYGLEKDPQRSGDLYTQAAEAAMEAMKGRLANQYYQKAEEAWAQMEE", "experimental": "as §1"}, "INSR": {"target": "T3, INSR (Homo sapiens, UniProt P06213)", "T3 construct": "endogenous in cells; host or cells: K562", "T3 sequence (P06213 28-1382)": "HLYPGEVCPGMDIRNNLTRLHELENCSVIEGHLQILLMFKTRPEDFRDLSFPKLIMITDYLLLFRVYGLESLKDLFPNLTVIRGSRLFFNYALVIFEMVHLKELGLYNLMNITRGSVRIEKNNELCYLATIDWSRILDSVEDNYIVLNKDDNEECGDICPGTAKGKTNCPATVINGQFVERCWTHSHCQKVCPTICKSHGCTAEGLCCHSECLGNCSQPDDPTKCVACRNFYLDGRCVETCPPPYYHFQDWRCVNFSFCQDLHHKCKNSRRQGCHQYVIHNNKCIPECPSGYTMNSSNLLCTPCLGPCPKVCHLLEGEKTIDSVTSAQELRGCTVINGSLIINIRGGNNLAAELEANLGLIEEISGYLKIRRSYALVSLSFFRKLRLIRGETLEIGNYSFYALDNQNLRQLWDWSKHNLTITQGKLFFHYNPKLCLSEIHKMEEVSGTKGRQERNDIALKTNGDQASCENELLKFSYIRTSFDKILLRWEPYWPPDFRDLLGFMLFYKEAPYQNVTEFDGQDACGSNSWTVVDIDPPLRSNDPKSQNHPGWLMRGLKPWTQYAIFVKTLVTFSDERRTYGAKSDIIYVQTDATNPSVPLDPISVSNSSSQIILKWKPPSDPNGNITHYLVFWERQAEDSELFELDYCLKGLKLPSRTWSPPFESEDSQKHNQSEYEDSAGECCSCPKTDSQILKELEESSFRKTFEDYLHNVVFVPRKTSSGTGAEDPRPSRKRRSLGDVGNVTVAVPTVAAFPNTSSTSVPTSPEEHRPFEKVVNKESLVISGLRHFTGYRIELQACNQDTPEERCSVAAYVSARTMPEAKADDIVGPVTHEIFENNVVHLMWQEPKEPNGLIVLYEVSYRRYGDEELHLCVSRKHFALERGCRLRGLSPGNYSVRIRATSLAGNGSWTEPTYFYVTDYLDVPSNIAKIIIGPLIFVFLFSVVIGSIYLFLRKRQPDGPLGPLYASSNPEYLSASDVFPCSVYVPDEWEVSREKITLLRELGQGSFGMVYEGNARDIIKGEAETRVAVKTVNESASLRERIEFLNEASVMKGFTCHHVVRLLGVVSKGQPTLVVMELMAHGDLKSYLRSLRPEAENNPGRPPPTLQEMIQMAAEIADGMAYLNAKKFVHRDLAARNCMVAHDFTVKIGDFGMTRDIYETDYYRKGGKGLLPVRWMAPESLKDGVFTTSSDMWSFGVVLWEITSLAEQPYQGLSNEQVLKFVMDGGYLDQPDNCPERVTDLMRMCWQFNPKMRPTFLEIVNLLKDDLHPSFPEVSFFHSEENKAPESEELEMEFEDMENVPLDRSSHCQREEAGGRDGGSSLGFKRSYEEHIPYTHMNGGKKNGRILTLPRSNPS", "experimental": "as §1"}, "MAP3K2": {"target": "T4, MAP3K2 (Homo sapiens, UniProt Q9Y2U5)", "T4 construct": "endogenous in cells; host or cells: K562", "T4 sequence (Q9Y2U5 1-619)": "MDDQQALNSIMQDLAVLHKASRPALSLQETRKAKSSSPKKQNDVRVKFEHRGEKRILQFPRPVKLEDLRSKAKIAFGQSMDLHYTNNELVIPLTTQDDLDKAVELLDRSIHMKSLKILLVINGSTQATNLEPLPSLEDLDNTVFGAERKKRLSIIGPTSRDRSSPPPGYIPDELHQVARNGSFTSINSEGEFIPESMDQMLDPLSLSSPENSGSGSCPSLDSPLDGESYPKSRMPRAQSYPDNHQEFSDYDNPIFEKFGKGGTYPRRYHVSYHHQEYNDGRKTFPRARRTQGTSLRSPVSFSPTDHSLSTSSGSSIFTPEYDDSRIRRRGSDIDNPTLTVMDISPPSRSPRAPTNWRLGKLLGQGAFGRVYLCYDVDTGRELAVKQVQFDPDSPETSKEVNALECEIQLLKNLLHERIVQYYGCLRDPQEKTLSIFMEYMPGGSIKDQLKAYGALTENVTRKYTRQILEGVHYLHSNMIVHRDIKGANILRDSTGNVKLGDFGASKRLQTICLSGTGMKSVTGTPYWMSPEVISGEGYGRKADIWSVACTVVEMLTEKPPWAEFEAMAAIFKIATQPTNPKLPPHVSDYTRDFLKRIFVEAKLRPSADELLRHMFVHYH", "experimental": "as §1"}, "SRPK1": {"target": "T5, SRPK1 (Homo sapiens, UniProt Q96SB4)", "T5 construct": "endogenous in cells; host or cells: K562", "T5 sequence (Q96SB4 whole entry)": "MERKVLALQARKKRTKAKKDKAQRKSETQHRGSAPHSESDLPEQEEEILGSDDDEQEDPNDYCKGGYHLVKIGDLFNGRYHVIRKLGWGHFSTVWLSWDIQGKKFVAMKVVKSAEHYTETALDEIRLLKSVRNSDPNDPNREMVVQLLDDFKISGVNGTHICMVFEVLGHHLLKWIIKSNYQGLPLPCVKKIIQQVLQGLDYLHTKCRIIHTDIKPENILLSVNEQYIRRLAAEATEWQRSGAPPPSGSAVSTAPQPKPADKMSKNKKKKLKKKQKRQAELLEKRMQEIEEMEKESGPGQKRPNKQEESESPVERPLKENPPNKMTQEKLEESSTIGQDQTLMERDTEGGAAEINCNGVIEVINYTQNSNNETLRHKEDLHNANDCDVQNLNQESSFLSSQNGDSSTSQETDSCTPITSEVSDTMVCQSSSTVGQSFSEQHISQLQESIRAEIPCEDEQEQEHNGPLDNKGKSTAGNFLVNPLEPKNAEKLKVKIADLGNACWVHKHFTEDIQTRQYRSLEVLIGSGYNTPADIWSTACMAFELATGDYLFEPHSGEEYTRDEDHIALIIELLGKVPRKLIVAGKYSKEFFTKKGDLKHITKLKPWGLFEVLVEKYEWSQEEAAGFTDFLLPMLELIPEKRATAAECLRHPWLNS", "experimental": "as §1"}, "PTK2": {"target": "T6, PTK2 (Homo sapiens, UniProt Q05397)", "T6 construct": "endogenous in cells; host or cells: K562", "T6 sequence (Q05397 whole entry)": "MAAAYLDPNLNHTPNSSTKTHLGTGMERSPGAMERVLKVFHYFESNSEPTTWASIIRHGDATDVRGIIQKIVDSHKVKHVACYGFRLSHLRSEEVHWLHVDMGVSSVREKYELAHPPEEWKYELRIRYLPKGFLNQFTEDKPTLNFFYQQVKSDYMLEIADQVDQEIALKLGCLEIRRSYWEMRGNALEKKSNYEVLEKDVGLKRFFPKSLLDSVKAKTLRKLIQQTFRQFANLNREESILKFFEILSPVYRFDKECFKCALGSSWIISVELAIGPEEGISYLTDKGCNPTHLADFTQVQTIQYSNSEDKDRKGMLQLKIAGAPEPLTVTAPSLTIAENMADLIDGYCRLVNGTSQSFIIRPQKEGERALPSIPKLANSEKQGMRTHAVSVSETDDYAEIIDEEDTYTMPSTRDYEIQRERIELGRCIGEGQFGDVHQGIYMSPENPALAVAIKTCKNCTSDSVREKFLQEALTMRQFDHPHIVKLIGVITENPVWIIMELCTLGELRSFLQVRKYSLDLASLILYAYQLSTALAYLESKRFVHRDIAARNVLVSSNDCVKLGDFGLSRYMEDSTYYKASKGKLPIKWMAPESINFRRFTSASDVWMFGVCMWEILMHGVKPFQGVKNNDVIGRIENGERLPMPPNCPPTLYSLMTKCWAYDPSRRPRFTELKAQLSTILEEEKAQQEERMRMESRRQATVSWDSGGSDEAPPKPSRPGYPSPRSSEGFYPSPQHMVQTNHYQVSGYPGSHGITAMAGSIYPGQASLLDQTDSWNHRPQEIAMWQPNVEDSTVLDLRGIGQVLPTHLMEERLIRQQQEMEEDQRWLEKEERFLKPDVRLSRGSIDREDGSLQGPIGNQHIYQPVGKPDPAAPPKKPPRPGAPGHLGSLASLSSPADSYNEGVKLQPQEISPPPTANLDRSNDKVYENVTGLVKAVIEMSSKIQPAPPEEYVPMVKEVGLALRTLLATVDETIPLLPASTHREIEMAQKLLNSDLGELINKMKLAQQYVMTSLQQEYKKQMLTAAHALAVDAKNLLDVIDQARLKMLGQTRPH", "experimental": "as §1"}, "ULK3": {"target": "T7, ULK3 (Homo sapiens, UniProt Q6PHR2)", "T7 construct": "endogenous in cells; host or cells: K562 cell lysate", "T7 sequence (Q6PHR2 1-472)": "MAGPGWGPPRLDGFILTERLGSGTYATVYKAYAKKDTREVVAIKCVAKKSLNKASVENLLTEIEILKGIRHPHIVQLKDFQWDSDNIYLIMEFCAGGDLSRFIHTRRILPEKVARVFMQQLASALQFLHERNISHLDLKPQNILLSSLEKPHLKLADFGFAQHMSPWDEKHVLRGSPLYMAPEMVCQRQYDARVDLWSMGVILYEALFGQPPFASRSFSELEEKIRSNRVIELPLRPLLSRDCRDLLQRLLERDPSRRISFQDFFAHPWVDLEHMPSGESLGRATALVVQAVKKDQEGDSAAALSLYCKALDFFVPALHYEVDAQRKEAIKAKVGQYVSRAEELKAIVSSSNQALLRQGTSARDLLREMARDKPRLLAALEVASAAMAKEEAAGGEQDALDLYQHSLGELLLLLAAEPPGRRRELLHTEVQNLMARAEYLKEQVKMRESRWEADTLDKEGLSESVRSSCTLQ", "experimental": "as §1"}, "CAMKK2": {"target": "T8, CAMKK2 (Homo sapiens, UniProt Q96RR4)", "T8 construct": "endogenous in cells; host or cells: K562", "T8 sequence (Q96RR4 whole entry)": "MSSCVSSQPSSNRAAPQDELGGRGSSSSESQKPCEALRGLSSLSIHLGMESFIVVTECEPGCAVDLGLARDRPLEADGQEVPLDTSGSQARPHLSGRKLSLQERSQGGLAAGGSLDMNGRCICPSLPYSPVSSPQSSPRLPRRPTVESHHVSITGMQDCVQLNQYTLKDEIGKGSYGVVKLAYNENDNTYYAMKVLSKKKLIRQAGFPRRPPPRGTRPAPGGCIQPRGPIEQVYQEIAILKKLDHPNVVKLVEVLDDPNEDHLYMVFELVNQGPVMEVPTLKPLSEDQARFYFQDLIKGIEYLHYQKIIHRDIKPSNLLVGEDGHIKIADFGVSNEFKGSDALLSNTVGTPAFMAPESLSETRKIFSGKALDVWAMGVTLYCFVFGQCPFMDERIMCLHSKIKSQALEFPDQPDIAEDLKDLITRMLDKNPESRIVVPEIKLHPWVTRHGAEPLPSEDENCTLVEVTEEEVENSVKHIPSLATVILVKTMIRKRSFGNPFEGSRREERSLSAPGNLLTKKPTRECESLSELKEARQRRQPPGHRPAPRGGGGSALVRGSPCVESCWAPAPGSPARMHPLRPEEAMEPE", "experimental": "as §1"}, "[1]": {"conditions": "read-out: RB50 (the source's name)"}, "[2]": {"conditions": "KAM 0.001-10 uM, read-out: RB50 (the source's name)"}},
  "data": [
    {"smiles": "N#CCc1ccc(Nc2nc(NCCCN)cc(Nc3cc(C4CC4)[nH]n3)n2)cc1", "note": "[KAM]", "values": [
      {"measurement": "median Log10 fold change", "setting": "DYRK1A; 0.001 uM KAM", "result": -0.05439},
      {"measurement": "median Log10 fold change", "setting": "DYRK1A; 0.01 uM KAM", "result": -0.0501},
      {"measurement": "median Log10 fold change", "setting": "DYRK1A; 0.1 uM KAM", "result": -0.184},
      {"measurement": "median Log10 fold change", "setting": "DYRK1A; 1 uM KAM", "result": -0.2641},
      {"measurement": "median Log10 fold change", "setting": "DYRK1A; 10 uM KAM", "result": -0.4024},
      {"measurement": "IC50", "setting": "DYRK1A; [1]", "result": 1470, "unit": "nM"},
      {"measurement": "IC50", "setting": "EEF2K; [2]", "result": "> 10000", "unit": "nM"},
      {"measurement": "0.001 uM KAM", "setting": "EEF2K; relative to 0 uM KAM = 0", "result": 0.04185},
      {"measurement": "0.01 uM KAM", "setting": "EEF2K; relative to 0 uM KAM = 0", "result": 0.02355},
      {"measurement": "0.1 uM KAM", "setting": "EEF2K; relative to 0 uM KAM = 0", "result": 0.1074},
      {"measurement": "1 uM KAM", "setting": "EEF2K; relative to 0 uM KAM = 0", "result": 0.1036},
      {"measurement": "10 uM KAM", "setting": "EEF2K; relative to 0 uM KAM = 0", "result": 0.09999},
      {"measurement": "IC50", "setting": "INSR; [2]", "result": "> 10000", "unit": "nM"},
      {"measurement": "0.001 uM KAM", "setting": "INSR; relative to 0 uM KAM = 0", "result": -0.0389},
      {"measurement": "0.01 uM KAM", "setting": "INSR; relative to 0 uM KAM = 0", "result": 0.002129},
      {"measurement": "0.1 uM KAM", "setting": "INSR; relative to 0 uM KAM = 0", "result": -0.09696},
      {"measurement": "1 uM KAM", "setting": "INSR; relative to 0 uM KAM = 0", "result": -0.2508},
      {"measurement": "10 uM KAM", "setting": "INSR; relative to 0 uM KAM = 0", "result": -0.2556},
      {"measurement": "median Log10 fold change", "setting": "MAP3K2; 0.001 uM KAM", "result": -0.0298},
      {"measurement": "median Log10 fold change", "setting": "MAP3K2; 0.01 uM KAM", "result": 0.004839},
      {"measurement": "median Log10 fold change", "setting": "MAP3K2; 0.1 uM KAM", "result": -0.103},
      {"measurement": "median Log10 fold change", "setting": "MAP3K2; 1 uM KAM", "result": -0.3096},
      {"measurement": "median Log10 fold change", "setting": "MAP3K2; 10 uM KAM", "result": -0.4027},
      {"measurement": "IC50", "setting": "MAP3K2; [1]", "result": 1330, "unit": "nM"},
      {"measurement": "IC50", "setting": "SRPK1; [2]", "result": "> 10000", "unit": "nM"},
      {"measurement": "0.001 uM KAM", "setting": "SRPK1; relative to 0 uM KAM = 0", "result": -0.01052},
      {"measurement": "0.01 uM KAM", "setting": "SRPK1; relative to 0 uM KAM = 0", "result": -0.04054},
      {"measurement": "0.1 uM KAM", "setting": "SRPK1; relative to 0 uM KAM = 0", "result": 0.02779},
      {"measurement": "1 uM KAM", "setting": "SRPK1; relative to 0 uM KAM = 0", "result": -0.002878},
      {"measurement": "10 uM KAM", "setting": "SRPK1; relative to 0 uM KAM = 0", "result": -0.01305},
      {"measurement": "median Log10 fold change", "setting": "PTK2; 0.001 uM KAM", "result": 0.001005},
      {"measurement": "median Log10 fold change", "setting": "PTK2; 0.01 uM KAM", "result": -0.00785},
      {"measurement": "median Log10 fold change", "setting": "PTK2; 0.1 uM KAM", "result": -0.1794},
      {"measurement": "median Log10 fold change", "setting": "PTK2; 1 uM KAM", "result": -0.5062},
      {"measurement": "median Log10 fold change", "setting": "PTK2; 10 uM KAM", "result": -0.5675},
      {"measurement": "IC50", "setting": "PTK2; [1]", "result": 335, "unit": "nM"},
      {"measurement": "median Log10 fold change", "setting": "ULK3; 0.001 uM KAM", "result": 0.008102},
      {"measurement": "median Log10 fold change", "setting": "ULK3; 0.01 uM KAM", "result": 0.009404},
      {"measurement": "median Log10 fold change", "setting": "ULK3; 0.1 uM KAM", "result": -0.1871},
      {"measurement": "median Log10 fold change", "setting": "ULK3; 1 uM KAM", "result": -0.4491},
      {"measurement": "median Log10 fold change", "setting": "ULK3; 10 uM KAM", "result": -0.5442},
      {"measurement": "IC50", "setting": "ULK3; [1]", "result": 405, "unit": "nM"},
      {"measurement": "median Log10 fold change", "setting": "CAMKK2; 0.001 uM KAM", "result": 0.007982},
      {"measurement": "median Log10 fold change", "setting": "CAMKK2; 0.01 uM KAM", "result": -0.006148},
      {"measurement": "median Log10 fold change", "setting": "CAMKK2; 0.1 uM KAM", "result": -0.132},
      {"measurement": "median Log10 fold change", "setting": "CAMKK2; 1 uM KAM", "result": -0.4329},
      {"measurement": "median Log10 fold change", "setting": "CAMKK2; 10 uM KAM", "result": -0.5591},
      {"measurement": "IC50", "setting": "CAMKK2; [1]", "result": 553, "unit": "nM"}
    ]}
  ]
}
